Measured values reported in paper PMC7355430, “Imunofan—RDKVYR Peptide—Stimulates Skin Cell Proliferation and Promotes Tissue Repair” (Molecules, 2020).
Peptide text beside a SMILES is read from it.

Tests used:
[1] = tested on: primary cortical neural cultures; assay: Neural viability, CellTiterBlue assay; type: cell-based, Wistar rat; details: 1, 10, 100, 200 µM, 20 h, 37 °C; CellTiterBlue (Figure S6)
Procedure: Neural viability assessments. Primary cortical neural cultures were obtained from E18.5 Wistar rat embryos. For this purpose, the rat was euthanized in a CO2 chamber. The cortex tissue was immediately excised from the brain, moved to a HBSS medium (diluted 10 × and supplemented with a penicilin/streptomycin mixture), and washed precisely. Afterwards, the tissue was trypsinized for 10 min at 37 °C, and homogenized gently. […] Neural viability was quantitatively examined by CellTiterBlue® (CTB) assay (Promega, G8080) after 20-hour long incubation of the cells at 37 °C in the CO2. […] Fluorescence intensity of the CTB reagent is measured spectrofluorymetrically (560ex/590em) and is proportional to the number of viable cells. No insult sample referred as a 100% viability control and the data from the insulted cells was quantified and presented relatively as mean ± SD. The data was analyzed by a Mann-Whitney test with p-value < 0.05 values considered statistically significant. […]
Influence of Imunofan on neural viability. Influence of Imunofan on neural viability was assessed by exposing the cells to different peptide concentrations (1, 10, 100, 200 µM) for 20 h at 37 °C in a 5% CO2 chamber. […]

[2] = tested on: primary fibroblast cell cultures; assay: Transcript levels by qPCR; type: cell-based, human; details: 0.1 µg/mL, 48 h, 2^−ΔCt relative to Actb and Tbp (Figure 5)
Procedure: Cell stimulation was performed as previously described. Primary fibroblasts after the third passage and ASCs after the second passage were cultured in appropriate DMEM medium supplemented with 10% FBS for 24 h. Then, the medium was changed for DMEM with 5% FBS and 24-h incubation was performed. After another medium change for serum-free, cells were stimulated with IM peptide (0.1 µg/mL) for 48 h. Cell cultures deprived of FBS for 48 h were used as a control. After stimulation, the cells were trypsinized, collected, and centrifuged, and the pellet was kept frozen (−80 °C) for transcriptome analysis and transcript level analysis.
RNA was extracted using an RNeasy Mini kit (Qiagen, Cat. No. 74104, Hilden, Germany). RNA quality and concentrations were examined with a NanoDrop 2000 spectrophotometer. cDNA synthesis was performed in a reaction mixture containing 200 ng of RNA, 100 pmoles of oligo dT20, 4 µl of 5× reaction buffer (250 mM Tris-HCl, 375 mM KCl, 15 mM MgCl2, and 50 mM DTT), and 200 units of Maxima Reverse Transcriptase (ThermoScientific Bio. Cat. No. EP0742, Waltham, MA USA), at a final volume of 20 µl. PCR reactions were carried out on a LightCycler LC96 device (Roche, Basel, Switzerland), at a final volume of 10 µl containing 5 µl of FastStart Essential DNA Green Master (Roche, Cat. No. 06402712001, Basel, Switzerland), 1 µl of cDNA, and 0.25 µl each of forward and reverse primer (10 µM). The primer sequences are listed in Supplementary Table S4. The transcript levels were determined using the 2^−ΔCt method relative to Actb and Tbp.

HaCaT keratinocytes = assay: XTT proliferation assay; type: cell-based, human
Procedure: (§1) XTT assay, which is widely used in the measurement of the effect of bioactive compounds (e.g., cytokines, growth factors, and peptides) on cell proliferation was used for the evaluation of IM effect on skin cells and ASCs proliferation. Cells were seeded at a density of 5000 cells per well into 96-well plates (BD, cat.no. 353872), in a medium supplemented with 10% of FBS, which after 24 h was exchanged for a serum-free DMEM medium containing appropriate concentrations of the IM peptide. IM solutions used in the experiments were prepared with double distilled water under sterile conditions. The cells were incubated with the peptide for 48 h or 72 h, then XTT reagent was added and the plates were incubated at 37 °C for 4 h in the presence of 5% CO2, following manufacturer’s instructions (Sigma-Aldrich, St. Louis, MO, USA). Plates were then read using a standard plate reader at OD 490 nm. Cell proliferation was normalized with respect to an untreated control (100%).

ASCs = assay: XTT proliferation assay; type: cell-based, human; details: 48 h, 1.0 and 10 µg/mL, serum-free DMEM, n=16
Procedure: as §1

46BR.1N fibroblasts = assay: XTT proliferation assay; type: cell-based, human; details: 48 h, 0.1–100 µg/mL, serum-free DMEM, n=16
Procedure: as §1

CC(C)[C@H](NC(=O)[C@H](CCCCN)NC(=O)[C@H](CC(=O)O)NC(=O)[C@@H](N)CCCNC(=N)N)C(=O)N[C@@H](Cc1ccc(O)cc1)C(=O)N[C@@H](CCCNC(=N)N)C(=O)O [IM, H-Arg-Asp-Lys-Val-Tyr-Arg-OH] (H-RDKVYR-OH)
toxicity to primary neural cells (viability) [1]: not toxic
transcriptional response of POU5F1 ([2]; fibroblasts from all three donors): very strong induction
transcriptional response of TET1 ([2]; primary fibroblasts): high activation
transcriptional response of TET3 ([2]; primary fibroblasts): high activation
increase in cell proliferation (HaCaT keratinocytes; 48 h, 0.1 and 1 µg/mL, serum-free DMEM, XTT, n=16): 20–50%
increase in proliferation of keratinocytes (abstract) (HaCaT keratinocytes; as summarised in the abstract, p < 0.05): 20–50%
increase in proliferation (ASCs): 10%
increase in proliferation compared to the control (46BR.1N fibroblasts): 20–40%
